The values that follow come from patent US20250222003A1, “PHARMACEUTICAL COMPOSITION FOR TREATING SOLID TUMORS” (Eisai R&D Management Co., Ltd., priority 2021, published 2025).

The assay has as its system patients with a solid tumor. Put plainly: Suppression of nausea or vomiting associated with administration of Compound A by antiemetics. The assay is classed as in vivo, human. Particulars: for number of subjects that did not show improvement of vomiting after the antiemetic / number of subjects in which vomiting could be suppressed / number of subjects showing improvement after switch from non-5-HT3 antiemetic to the 5-HT3 receptor antagonist: of 20 subjects; for number of subjects that did not show improvement of vomiting after the antiemetic: domperidone, metoclopramide or prochlorperazine; for number of subjects in which vomiting could not be suppressed: Compound A 160 mg BID; for number of subjects in which vomiting could not be suppressed / number of subjects in which vomiting could be suppressed / number of subjects showing improvement after switch from non-5-HT3 antiemetic to the 5-HT3 receptor antagonist: ramosetron or granisetron; for number of subjects showing improvement of vomiting by the antiemetic: of 20 subjects complaining of vomiting during Cycle 1, prochlorperazine or metoclopramide. The source says: For subjects of administration that had the gastrointestinal symptoms, nausea or vomiting, the results of administration of various antiemetics were investigated to determine whether they could suppress the occurrence of nausea or vomiting. The antiemetics used were domperidone ([…], Nauzelin tablet), metoclopramide (peripheral D2 receptor antagonist, metoclopramide tablet), ramosetron hydrochloride (5-HT3 receptor antagonist, Nasea tablet), granisetron (5-HT3 receptor antagonist (Kytril tablet), and the like.
The antiemetics were timely administered to 20 subjects of administration that complained of vomiting during Cycle 1.
FIGS. 1 and 2 are graphs showing the relationship between Cmax(Cmax,ss) or AUC (AUC(0-tau),ss) and the vomiting flag for each test subject at the time of CID8. For example, the vomiting flag 3 means a case in which treatment with an antiemetic other than the 5-HT3 receptor antagonist was first attempted but vomiting could not be suppressed, and vomiting could be suppressed when the antiemetic was switched to the 5-HT3 receptor antagonist.
Five additional patients were investigated whether the occurrence of nausea or vomiting, which is an adverse event having a causal relationship with Compound A, could be suppressed. Ramosetron hydrochloride or granisetron hydrochloride (5-HT3 receptor antagonist) was administered to four patients of administration that complained of vomiting during Cycle 1. Of the four patients that complained of vomiting, three patients received granisetron hydrochloride to prevent the gastrointestinal symptoms (nausea, vomiting) associated with administration of Compound A.

`O=c1[nH]c2ccccc2n1CCCN1CCC(n2c(=O)[nH]c3cc(Cl)ccc32)CC1` [domperidone]: the “number of subjects that did not show improvement of vomiting after the antiemetic” value is listed as “four”.
On to `CN1[C@@H]2CCC[C@H]1C[C@@H](NC(=O)c1nn(C)c3ccccc13)C2.Cl` [granisetron, 1-methyl-N-(endo-9-methyl-9-azabicyclo[3.3.1]non-3-yl)-1H-indazole-3-carboxamide hydrochloride], for which the “number of subjects in which vomiting could not be suppressed” value is “two”, the “number of subjects in which vomiting could be suppressed” value is “twelve” and the “number of subjects showing improvement after switch from non-5-HT3 antiemetic to the 5-HT3 receptor antagonist” value was “four”. The “number of test subjects in which vomiting could be suppressed when given after symptoms of nausea or vomiting” value (additional patients, Compound A 120 mg BID) is given as “one”. For the same compound, under “additional patients, Compound A 120 mg BID, three patients”, the “vomiting after prophylactic administration” value is “no vomiting occurred afterwards”. Besides, the “number of subjects in which vomiting could be prevented when given at onset of nausea” value (of the twelve subjects) is “two”.
As for `CCN(CC)CCNC(=O)c1cc(Cl)c(N)cc1OC` [metoclopramide], the “number of subjects showing improvement of vomiting by the antiemetic” value was “Two” and the “number of subjects that did not show improvement of vomiting after the antiemetic” value is listed as “four”.
As to `CN1CCN(CCCN2c3ccccc3Sc3ccc(Cl)cc32)CC1` [prochlorperazine], the “number of subjects showing improvement of vomiting by the antiemetic” value was “Two” and the “number of subjects that did not show improvement of vomiting after the antiemetic” value is “four”.
Turning to `Cl.Cn1cc(C(=O)[C@@H]2CCc3[nH]cnc3C2)c2ccccc21` [ramosetron, (−)-(R)-5-[(1-methyl-1H-indol-3-yl)carbonyl]-4,5,6,7-tetrahydro-1H-benzimidazole monohydrochloride], the “number of subjects in which vomiting could not be suppressed” value is “two”, the “number of subjects in which vomiting could be suppressed” value is “twelve” and the “number of subjects showing improvement after switch from non-5-HT3 antiemetic to the 5-HT3 receptor antagonist” value is “four”.
